What all share (format): functional
Assay [1] relates to Enterococcus faecalis. In words: Tested for inhibition of visible growth of Streptococcus faecalis.
Assay [2] deals with Klebsiella pneumoniae. The assay can be described thus: Tested for inhibition of visible growth of Klebsiella pneumoniae.
The subject of assay [3] is Staphylococcus aureus. The assay can be described thus: Tested for inhibition of visible growth of Staphylococcus aureus, benzyl-penicillin sensitive.
For assay [4], the system named is Streptococcus pyogenes. In words: Tested for inhibition of visible growth of Streptococcus pyogenes.
Assay [5] can be described thus: Tested for inhibition of visible growth of Salmonella schottmuelleri.
For assay [6], the system named is Escherichia coli. In words: Tested for inhibition of visible growth of Escherichia coli.
Assay [7] relates to Streptococcus pneumoniae. In words: Tested for inhibition of visible growth of Streptococcus pneumoniae.
In assay [8] the test system is Proteus mirabilis. In words: Tested for inhibition of visible growth of Proteus mirabilis.
The subject of assay [9] is Staphylococcus aureus. In words: Tested for inhibition of visible growth of Staphylococcus aureus.
Assay [10] concerns Enterobacter cloacae. In words: Tested for inhibition of visible growth of Enterobacter cloacae.
The test system of assay [11] is Klebsiella aerogenes. The assay can be described thus: Tested for inhibition of visible growth of Enterobacter aerogenes.
Assay [12] concerns Streptococcus pneumoniae. In words: (§1) Tested for the antimicrobial activity against Streptococcus pneumoniae in mice.
The nature of assay [13]: (§2) Tested for the antimicrobial activity against Salmonella schottmuelleri in mice.
The subject of assay [14] is Escherichia coli. The assay can be described thus: Tested for the antimicrobial activity against Escherichia coli in mice.
Assay [15] deals with Staphylococcus aureus. In words: Tested for the antimicrobial activity against Staphylococcus aureus, benzyl-penicillin sensitive in mice, perorally. The note with it: po.
For assay [16], the system named is Escherichia coli. In words: Tested for the antimicrobial activity against Escherichia coli in mice perorally. As to conditions: po.
Assay [17] can be described thus: as §2. The source holds these as a separate data set.
Assay [18] relates to Streptococcus pneumoniae. The description is as §1. This is another data set of the same source.
The subject of assay [19] is Staphylococcus aureus. The assay can be described thus: Tested for the antimicrobial activity against Staphylococcus aureus.
The test system of assay [20] is Streptococcus pyogenes. The assay can be described thus: (§3) Tested for the antimicrobial activity against Streptococcus pyogenes in mice.
Assay [21] relates to Streptococcus pyogenes. Described as §3. The source holds these as a separate data set.
Assay [22] has as its system Pseudomonas aeruginosa. The assay can be described thus: Tested for inhibition of visible growth of Pseudomonas aeruginosa.

In brackets after ≈: the same amount, converted by molar mass.

8 compounds from ChEMBL document CHEMBL1121424, “Orally active cephalosporins and penicillins” (J Med Chem, 1980) can be followed below.

For the compound `CC1=C(C(=O)O)N2C(=O)C(NC(=O)[C@@H](N)c3ccc4c(c3)OCO4)C2SC1` (stereo partly specified), the MIC (usually the least concentration at which growth counts as inhibited) in [1] was over 100 mg/L; in [2], over 100 mg/L; in assay [3] it was 25 mg/L (≈ 63.9 µM); in assay [4], 12.5 mg/L (≈ 31.9 µM); in [5], over 100 mg/L; in assay [6], over 100 mg/L. Also, the MIC in assay [7] is 50 mg/L (≈ 128 µM); in assay [8], over 100 mg/L.
`CC(=O)OCC1=C(C(=O)O)N2C(=O)C(NC(=O)C(O)c3ccc4c(c3)CCO4)C2SC1` (racemic): the MIC in assay [9] was 3.1 mg/L (≈ 6.91 µM); in assay [1], over 200 mg/L; in assay [2], 50 mg/L (≈ 111 µM); in [3] it was 0.8 mg/L (≈ 1.78 µM); in [10], over 200 mg/L; in [4], 0.1 mg/L (≈ 0.223 µM). Besides, the minimum inhibitory concentration (MIC) in assay [5] is 12.5 mg/L (≈ 27.9 µM); in assay [6], 50 mg/L (≈ 111 µM); in [11] it was over 200 mg/L; in assay [7], 0.1 mg/L (≈ 0.223 µM); in [8], 50 mg/L (≈ 111 µM).
Take `Cc1nnc(SCC2=C(C(=O)O)N3C(=O)C(NC(=O)[C@H](N)c4ccc5c(c4)CCO5)C3SC2)s1` (stereo partly specified): the ED50 (commonly the dose at which the effect has come halfway, by size or by number of responders) in assay [12] came to 0.89 mg/kg; in assay [13], 23 mg/kg; in assay [14], 9.3 mg/kg; in assay [15] it was 1.8 mg/kg; in assay [16], 20 mg/kg; in [17], 31 mg/kg. Besides, the ED50 turned out to be 1.6 mg/kg in assay [18], 0.88 mg/kg in assay [19], 0.44 mg/kg in assay [20] and 0.78 mg/kg in assay [21]. The minimum inhibitory concentration (MIC) in assay [9] is 3.1 mg/L (≈ 5.97 µM); in assay [1], 100 mg/L (≈ 192 µM); in assay [2], 6.2 mg/L (≈ 11.9 µM); in [3], 0.8 mg/L (≈ 1.54 µM); in [10], over 100 mg/L; in [4] it was 0.05 mg/L (≈ 0.0962 µM). Further, the MIC in assay [5] was 6.2 mg/L (≈ 11.9 µM); in assay [6] it was 12.5 mg/L (≈ 24.1 µM); in [11], 25 mg/L (≈ 48.1 µM); in assay [7] it was at most 0.03 mg/L; in [8], over 100 mg/L.
For the compound `CC1=C(C(=O)O)N2C(=O)C(NC(=O)C(N)c3ccc4c(c3)CCO4)C2SC1` (racemic), the MIC in assay [9] was 3.1 mg/L (≈ 7.96 µM); in assay [1], over 200 mg/L; in [2], 50 mg/L (≈ 128 µM); in assay [3], 1.6 mg/L (≈ 4.11 µM); in assay [10] it was over 200 mg/L; in assay [4] it was 0.4 mg/L (≈ 1.03 µM). Besides, the MIC in [5] was 50 mg/L (≈ 128 µM); in assay [6], 100 mg/L (≈ 257 µM); in assay [11] it was over 200 mg/L; in assay [7], 3.1 mg/L (≈ 7.96 µM); in assay [8], over 200 mg/L.
With `CC1(C)SC2C(NC(=O)C(C(=O)O)c3ccc4c(c3)OCO4)C(=O)N2C1C(=O)O` (racemic), the MIC in assay [9] was 12.5 mg/L (≈ 29.6 µM); in assay [22] it was 3.1 mg/L (≈ 7.34 µM); in assay [1], over 100 mg/L; in assay [2], 100 mg/L (≈ 237 µM); in assay [3], 0.8 mg/L (≈ 1.89 µM); in [10] it was 100 mg/L (≈ 237 µM). For the same compound, the MIC was 0.8 mg/L (≈ 1.89 µM) in assay [4]; 50 mg/L (≈ 118 µM) in assay [5]; 50 mg/L (≈ 118 µM) in assay [6]; 50 mg/L (≈ 118 µM) in assay [11]; 0.2 mg/L (≈ 0.473 µM) in assay [7]; 3.1 mg/L (≈ 7.34 µM) in [8].
As to `CC(=O)OCC1=C(C(=O)O)N2C(=O)C(NC(=O)C(O)c3ccc4c(c3)OCO4)C2SC1` (racemic), the MIC in assay [9] is 3.1 mg/L (≈ 6.88 µM); in assay [1], over 200 mg/L; in [2], 25 mg/L (≈ 55.5 µM); in [3], 0.8 mg/L (≈ 1.78 µM); in [10], over 200 mg/L; in assay [4], 0.1 mg/L (≈ 0.222 µM). Moreover, the minimum inhibitory concentration (MIC) in assay [5] is 6.2 mg/L (≈ 13.8 µM); in assay [6] it was 25 mg/L (≈ 55.5 µM); in assay [11], over 200 mg/L; in [7], 0.1 mg/L (≈ 0.222 µM); in [8], 50 mg/L (≈ 111 µM).
For the compound `CC(=O)OCC1=C(C(=O)O)N2C(=O)C(NC(=O)C(N)c3cccc4c3OCO4)C2SC1` (racemic), the MIC in [9] is 3.1 mg/L (≈ 6.9 µM); in [1] it was 200 mg/L (≈ 445 µM); in assay [2] it was 50 mg/L (≈ 111 µM); in assay [3], 3.1 mg/L (≈ 6.9 µM); in [10] it was over 200 mg/L; in assay [4], 0.2 mg/L (≈ 0.445 µM). Further, the MIC in assay [5] is 25 mg/L (≈ 55.6 µM); in assay [6], 100 mg/L (≈ 222 µM); in assay [11], over 200 mg/L; in assay [7], 0.2 mg/L (≈ 0.445 µM); in assay [8] it was 100 mg/L (≈ 222 µM).
`CC(=O)OCC1=C(C(=O)O)N2C(=O)C(NC(=O)[C@H](N)c3ccc4c(c3)CCO4)C2SC1` (stereo partly specified): the MIC is 3.1 mg/L (≈ 6.93 µM) in assay [9]; 50 mg/L (≈ 112 µM) in [1]; 6.2 mg/L (≈ 13.9 µM) in assay [2]; 0.8 mg/L (≈ 1.79 µM) in assay [3]; 100 mg/L (≈ 223 µM) in [10]; 0.1 mg/L (≈ 0.223 µM) in assay [4]. In addition, the MIC amounted to 3.1 mg/L (≈ 6.93 µM) in assay [5]; 25 mg/L (≈ 55.9 µM) in [6]; 100 mg/L (≈ 223 µM) in [11]; 0.1 mg/L (≈ 0.223 µM) in assay [7]; 50 mg/L (≈ 112 µM) in assay [8].
